From ChEMBL document CHEMBL5291721, “A preclinical secondary pharmacology resource illuminates target-adverse drug reaction associations of marketed drugs” (Nat Commun, 2023)

Columns and labels:
[1] = biological target: Beta-2 adrenergic receptor (Homo sapiens, UniProt P07550)
[2] = biological target: T1, Prostaglandin G/H synthase 1 (Rattus norvegicus, UniProt Q63921); assay type: functional
T1 sequence (Q63921 whole entry): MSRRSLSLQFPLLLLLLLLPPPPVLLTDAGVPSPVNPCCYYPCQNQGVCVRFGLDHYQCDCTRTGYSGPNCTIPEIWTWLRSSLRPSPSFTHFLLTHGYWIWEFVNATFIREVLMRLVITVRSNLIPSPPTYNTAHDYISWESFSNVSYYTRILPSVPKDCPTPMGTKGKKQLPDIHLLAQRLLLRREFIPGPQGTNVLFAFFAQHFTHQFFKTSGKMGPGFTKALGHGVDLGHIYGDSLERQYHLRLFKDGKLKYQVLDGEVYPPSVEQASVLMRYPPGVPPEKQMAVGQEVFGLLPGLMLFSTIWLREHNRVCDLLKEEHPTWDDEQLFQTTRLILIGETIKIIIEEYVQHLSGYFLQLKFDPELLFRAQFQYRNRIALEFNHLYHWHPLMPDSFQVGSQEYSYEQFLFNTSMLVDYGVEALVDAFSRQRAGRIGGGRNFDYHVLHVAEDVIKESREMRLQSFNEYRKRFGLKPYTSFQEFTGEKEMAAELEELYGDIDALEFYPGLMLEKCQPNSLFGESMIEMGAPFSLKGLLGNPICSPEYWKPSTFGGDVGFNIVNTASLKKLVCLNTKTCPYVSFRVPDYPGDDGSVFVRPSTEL

[3] = biological target: Neuronal acetylcholine receptor subunit alpha-4 (Homo sapiens, UniProt P43681)
Neuronal acetylcholine receptor subunit alpha-4, sequence (P43681 whole entry): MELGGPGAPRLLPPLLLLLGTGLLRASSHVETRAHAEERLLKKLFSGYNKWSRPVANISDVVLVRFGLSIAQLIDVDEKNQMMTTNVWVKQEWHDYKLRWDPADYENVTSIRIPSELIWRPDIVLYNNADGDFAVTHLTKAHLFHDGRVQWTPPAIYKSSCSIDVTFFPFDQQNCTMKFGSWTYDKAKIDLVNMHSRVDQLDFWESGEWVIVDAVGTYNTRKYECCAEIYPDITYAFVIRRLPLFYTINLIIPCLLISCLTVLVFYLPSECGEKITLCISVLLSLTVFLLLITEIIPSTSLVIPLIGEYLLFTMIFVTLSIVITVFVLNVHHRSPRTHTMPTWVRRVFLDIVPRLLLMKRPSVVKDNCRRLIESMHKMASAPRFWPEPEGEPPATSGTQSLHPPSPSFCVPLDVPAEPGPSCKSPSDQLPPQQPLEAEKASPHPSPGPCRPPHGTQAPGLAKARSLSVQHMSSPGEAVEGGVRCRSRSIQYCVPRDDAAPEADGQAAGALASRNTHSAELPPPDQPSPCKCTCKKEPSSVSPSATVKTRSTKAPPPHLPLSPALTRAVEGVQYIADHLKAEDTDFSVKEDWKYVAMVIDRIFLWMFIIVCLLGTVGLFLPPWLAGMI

[4] = biological target: Muscarinic acetylcholine receptor M3 (Homo sapiens, UniProt P20309)
Muscarinic acetylcholine receptor M3, sequence (P20309 whole entry): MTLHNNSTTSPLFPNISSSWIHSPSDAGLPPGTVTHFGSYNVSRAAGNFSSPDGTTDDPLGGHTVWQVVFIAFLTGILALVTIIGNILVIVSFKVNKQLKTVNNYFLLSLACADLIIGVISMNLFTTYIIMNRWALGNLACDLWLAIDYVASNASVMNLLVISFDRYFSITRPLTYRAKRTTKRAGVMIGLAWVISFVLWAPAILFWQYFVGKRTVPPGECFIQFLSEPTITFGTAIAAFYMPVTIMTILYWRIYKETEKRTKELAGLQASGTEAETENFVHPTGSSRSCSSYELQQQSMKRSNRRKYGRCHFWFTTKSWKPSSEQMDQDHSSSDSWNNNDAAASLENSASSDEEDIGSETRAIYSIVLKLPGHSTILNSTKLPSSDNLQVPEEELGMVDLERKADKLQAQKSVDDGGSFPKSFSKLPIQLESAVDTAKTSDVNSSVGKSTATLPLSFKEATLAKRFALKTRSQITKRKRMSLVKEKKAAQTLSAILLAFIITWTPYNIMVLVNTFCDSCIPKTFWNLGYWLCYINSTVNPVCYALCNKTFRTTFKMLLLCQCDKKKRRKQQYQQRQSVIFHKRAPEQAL

Adenosine receptor A2a = Adenosine receptor A2a (Homo sapiens, UniProt P29274)
Adenosine receptor A2a, sequence (P29274 whole entry): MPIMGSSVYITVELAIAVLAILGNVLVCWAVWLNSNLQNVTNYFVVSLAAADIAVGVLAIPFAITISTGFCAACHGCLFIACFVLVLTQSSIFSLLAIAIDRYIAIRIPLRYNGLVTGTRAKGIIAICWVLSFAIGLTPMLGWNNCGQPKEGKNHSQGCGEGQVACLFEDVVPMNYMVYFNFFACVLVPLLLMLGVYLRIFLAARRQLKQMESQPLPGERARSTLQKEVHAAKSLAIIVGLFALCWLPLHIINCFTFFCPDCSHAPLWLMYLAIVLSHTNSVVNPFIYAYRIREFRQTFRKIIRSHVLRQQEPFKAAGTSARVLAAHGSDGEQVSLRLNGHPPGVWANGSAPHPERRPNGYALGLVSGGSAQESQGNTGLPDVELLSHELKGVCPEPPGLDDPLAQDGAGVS

[5] = biological target: T2, 5-hydroxytryptamine receptor 1A (Homo sapiens, UniProt P08908); assay type: functional, cell-based
T2 sequence (P08908 whole entry): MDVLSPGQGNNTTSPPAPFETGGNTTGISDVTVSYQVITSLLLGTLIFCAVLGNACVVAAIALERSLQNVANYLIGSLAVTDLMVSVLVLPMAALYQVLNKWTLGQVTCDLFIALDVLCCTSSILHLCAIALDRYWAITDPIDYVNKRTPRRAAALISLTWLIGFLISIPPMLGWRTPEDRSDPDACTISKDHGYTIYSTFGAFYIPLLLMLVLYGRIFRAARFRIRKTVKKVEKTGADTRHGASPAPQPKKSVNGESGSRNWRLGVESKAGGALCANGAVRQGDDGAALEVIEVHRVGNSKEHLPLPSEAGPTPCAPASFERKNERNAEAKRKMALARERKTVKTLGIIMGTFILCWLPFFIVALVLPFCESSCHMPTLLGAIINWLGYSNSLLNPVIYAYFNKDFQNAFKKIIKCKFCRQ

[6] = biological target: Beta-1 adrenergic receptor (Homo sapiens, UniProt P08588); assay type: functional
Beta-1 adrenergic receptor, sequence (P08588 whole entry): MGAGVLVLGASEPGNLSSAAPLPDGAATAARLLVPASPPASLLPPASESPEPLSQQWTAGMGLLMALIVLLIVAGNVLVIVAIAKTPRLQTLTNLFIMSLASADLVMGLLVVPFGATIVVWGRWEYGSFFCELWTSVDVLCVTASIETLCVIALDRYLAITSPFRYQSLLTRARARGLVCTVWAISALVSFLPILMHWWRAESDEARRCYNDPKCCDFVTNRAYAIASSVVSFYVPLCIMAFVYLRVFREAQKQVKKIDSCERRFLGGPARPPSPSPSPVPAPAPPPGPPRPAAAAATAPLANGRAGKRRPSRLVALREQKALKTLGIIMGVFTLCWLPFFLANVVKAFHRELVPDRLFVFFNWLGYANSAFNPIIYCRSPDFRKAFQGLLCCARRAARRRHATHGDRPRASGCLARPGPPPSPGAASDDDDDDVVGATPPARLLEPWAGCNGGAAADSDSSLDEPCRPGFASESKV

Cannabinoid receptor 1 = Cannabinoid receptor 1 (Homo sapiens, UniProt P21554); assay type: functional, cell-based
Cannabinoid receptor 1, sequence (P21554 whole entry): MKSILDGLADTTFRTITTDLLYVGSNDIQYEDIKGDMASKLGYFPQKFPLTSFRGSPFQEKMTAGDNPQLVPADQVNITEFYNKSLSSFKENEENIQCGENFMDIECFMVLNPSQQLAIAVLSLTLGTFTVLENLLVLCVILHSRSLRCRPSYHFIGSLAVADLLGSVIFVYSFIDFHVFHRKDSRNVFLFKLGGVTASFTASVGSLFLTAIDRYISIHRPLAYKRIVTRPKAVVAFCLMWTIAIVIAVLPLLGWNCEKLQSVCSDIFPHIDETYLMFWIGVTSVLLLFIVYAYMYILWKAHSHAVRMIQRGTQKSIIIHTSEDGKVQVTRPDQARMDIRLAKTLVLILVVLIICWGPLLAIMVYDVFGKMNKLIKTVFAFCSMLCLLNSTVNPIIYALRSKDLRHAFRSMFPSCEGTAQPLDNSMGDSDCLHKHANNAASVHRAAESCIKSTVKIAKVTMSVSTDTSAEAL

[7] = biological target: T3, Muscarinic acetylcholine receptor M2 (Homo sapiens, UniProt P08172); assay type: functional, cell-based
T3 sequence (P08172 whole entry): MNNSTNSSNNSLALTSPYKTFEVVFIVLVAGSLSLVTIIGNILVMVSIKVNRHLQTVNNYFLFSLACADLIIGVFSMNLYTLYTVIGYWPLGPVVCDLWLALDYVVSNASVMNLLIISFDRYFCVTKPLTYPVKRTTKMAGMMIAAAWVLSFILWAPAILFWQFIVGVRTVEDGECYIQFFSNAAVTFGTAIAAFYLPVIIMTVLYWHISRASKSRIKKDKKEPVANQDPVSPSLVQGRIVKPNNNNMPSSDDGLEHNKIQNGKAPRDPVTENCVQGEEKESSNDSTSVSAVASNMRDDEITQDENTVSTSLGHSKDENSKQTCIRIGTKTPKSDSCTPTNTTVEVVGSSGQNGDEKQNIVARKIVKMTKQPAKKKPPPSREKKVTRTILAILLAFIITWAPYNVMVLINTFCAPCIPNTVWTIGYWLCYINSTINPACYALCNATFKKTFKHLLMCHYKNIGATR

Progesterone receptor = biological target: T4, Progesterone receptor (Homo sapiens, UniProt P06401); assay type: functional
T4 sequence (P06401 whole entry): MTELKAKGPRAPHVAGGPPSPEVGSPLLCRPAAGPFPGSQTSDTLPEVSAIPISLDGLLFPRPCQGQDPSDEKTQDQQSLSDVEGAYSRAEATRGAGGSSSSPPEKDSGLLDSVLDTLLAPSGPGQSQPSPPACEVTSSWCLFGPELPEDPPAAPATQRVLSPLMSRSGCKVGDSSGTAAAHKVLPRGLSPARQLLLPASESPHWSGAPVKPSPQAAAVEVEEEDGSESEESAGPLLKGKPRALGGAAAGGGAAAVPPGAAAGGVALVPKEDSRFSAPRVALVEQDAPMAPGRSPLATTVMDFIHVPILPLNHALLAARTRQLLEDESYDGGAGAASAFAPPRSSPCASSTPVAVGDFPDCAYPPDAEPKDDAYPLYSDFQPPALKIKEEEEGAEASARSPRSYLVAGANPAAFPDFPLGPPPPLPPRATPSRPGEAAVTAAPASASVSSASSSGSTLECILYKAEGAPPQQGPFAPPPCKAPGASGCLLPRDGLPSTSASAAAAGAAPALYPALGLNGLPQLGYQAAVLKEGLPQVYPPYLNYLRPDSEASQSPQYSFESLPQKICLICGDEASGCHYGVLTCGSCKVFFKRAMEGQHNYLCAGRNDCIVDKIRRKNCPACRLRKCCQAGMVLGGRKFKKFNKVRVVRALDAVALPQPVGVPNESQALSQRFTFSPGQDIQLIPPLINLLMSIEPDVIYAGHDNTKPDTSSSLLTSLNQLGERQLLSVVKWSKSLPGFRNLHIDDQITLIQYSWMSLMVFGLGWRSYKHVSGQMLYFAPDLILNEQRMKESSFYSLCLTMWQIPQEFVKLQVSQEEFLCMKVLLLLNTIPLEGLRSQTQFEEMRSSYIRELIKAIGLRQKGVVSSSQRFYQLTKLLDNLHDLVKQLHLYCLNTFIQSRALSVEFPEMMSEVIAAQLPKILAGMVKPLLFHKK
Further: assay procedure not described here.

Beta-2 adrenergic receptor, sequence (P07550 whole entry): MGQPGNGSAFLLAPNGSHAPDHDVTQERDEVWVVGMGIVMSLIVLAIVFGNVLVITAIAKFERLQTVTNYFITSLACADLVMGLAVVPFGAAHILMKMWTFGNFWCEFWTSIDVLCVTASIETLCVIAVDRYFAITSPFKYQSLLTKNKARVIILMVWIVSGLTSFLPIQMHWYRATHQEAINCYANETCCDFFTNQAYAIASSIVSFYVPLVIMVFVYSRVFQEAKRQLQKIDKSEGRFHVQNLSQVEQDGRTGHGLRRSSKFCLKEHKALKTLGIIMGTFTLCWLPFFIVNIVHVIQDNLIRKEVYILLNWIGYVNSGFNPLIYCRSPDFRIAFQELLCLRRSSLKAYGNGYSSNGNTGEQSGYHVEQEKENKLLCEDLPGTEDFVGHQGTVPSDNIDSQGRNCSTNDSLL

Compound | AC50 [1] [µM] | AC50 [2] [µM] | AC50 [3] [µM] | AC50 [4] [µM] | AC50 (Adenosine receptor A2a) [µM] | AC50 [5] [µM] | AC50 [6] [µM] | AC50 (Cannabinoid receptor 1) [µM] | AC50 [7] [µM] | AC50 (Progesterone receptor) [µM]
CCC(=O)OCC(=O)[C@@]1(OC(=O)CC)[C@@H](C)C[C@H]2[C@@H]3CCC4=CC(=O)C=C[C@]4(C)[C@@]3(F)[C@@H](O)C[C@@]21C [BETAMETHASONE DIPROPIONATE] | > 30 | > 10 | > 30 | > 30 | > 30 | > 30 | > 30 | > 30 | > 30 | –
Cc1ccc2c(-c3ccccc3)nc(=O)n(C(C)C)c2c1 [PROQUAZONE] | > 30 | 0.2 | > 30 | > 30 | > 30 | – | > 30 | > 30 | > 30 | > 30
CC(=O)c1ccc2c(c1)N(CCCN1CCC(CCO)CC1)c1ccccc1S2 [PIPERACETAZINE] | 22 | > 30 | > 30 | 9.5 | > 30 | 0.043 | > 30 | > 30 | > 30 | –
CCCN(CC)C(CC)C(=O)Nc1c(C)cccc1C (stereo unspecified) [ETIDOCAINE] | > 30 | > 30 | > 30 | > 30 | > 30 | – | > 30 | > 30 | > 30 | > 30
CC(=O)OCC(=O)[C@@]1(O)CC[C@H]2[C@@H]3CCC4=CC(=O)CC[C@]4(C)C3=CC[C@@]21C [ANECORTAVE ACETATE] | > 10 | > 10 | > 10 | > 30 | > 10 | – | > 10 | > 30 | > 10 | > 30
CC(C)c1cc2c(cc1S(=O)(=O)O)[C@@]1(C)CCC[C@@](C)(C(=O)O)[C@@H]1CC2 [ECABET] | > 30 | > 30 | > 30 | > 30 | > 30 | – | > 30 | > 30 | > 30 | > 30
CC(C)OC(=O)C(C(=O)OC(C)C)=C1SC=CS1 [MALOTILATE] | > 30 | > 30 | > 30 | > 30 | > 30 | – | > 30 | > 30 | > 30 | > 30
C=CC(N)CCC(=O)O (stereo unspecified) [VIGABATRIN] | > 10 | > 10 | > 10 | > 30 | > 10 | – | > 10 | > 30 | > 10 | > 10
O=C(O)c1ccccc1Nc1cccc(C(F)(F)F)c1 [FLUFENAMIC ACID] | > 10 | 18.3 | > 10 | 0.92 | > 30 | 15 | > 10 | > 30 | > 10 | –
CCCOC(C(=O)OC1CCN(C)CC1)(c1ccccc1)c1ccccc1 [PROPIVERINE] | > 30 | > 30 | > 30 | 0.83 | > 30 | – | > 30 | > 30 | > 30 | > 30
Clc1ccc2c(c1)C(c1ccccc1)=NCc1nncn1-2 [ESTAZOLAM] | > 10 | > 30 | > 10 | > 30 | > 30 | > 10 | > 10 | > 30 | > 10 | –
N[C@H](Cc1cc(I)c(Oc2cc(I)c(O)c(I)c2)c(I)c1)C(=O)O [DEXTROTHYROXINE] | > 10 | > 30 | > 10 | > 30 | > 30 | 8.2 | > 10 | > 30 | > 10 | –
Clc1ccc(C(Cn2ccnc2)OCc2ccc(Sc3ccccc3)cc2)c(Cl)c1 (stereo unspecified) [FENTICONAZOLE] | > 30 | 30 | > 10 | 21 | > 30 | – | > 30 | > 30 | > 30 | 25
CCC(C)(Oc1ccc(C2(c3ccc(OC(C)(CC)C(=O)O)cc3)CCCCC2)cc1)C(=O)O (stereo unspecified) [CLINOFIBRATE] | > 30 | > 30 | > 30 | > 30 | > 30 | – | > 30 | > 30 | > 30 | > 30
CCN(CC)C(=O)C1CN2CCc3cc(OC)c(OC)cc3C2CC1OC(C)=O (stereo unspecified) [BENZQUINAMIDE] | > 10 | 2.72 | > 30 | > 30 | > 30 | – | > 30 | > 30 | > 30 | > 30
CCCCC[C@H](O)/C=C/[C@H]1[C@H](O)CC(=O)[C@@H]1C/C=C\CCCC(=O)O [DINOPROSTONE] | > 30 | 15 | > 30 | > 30 | > 30 | – | > 30 | > 30 | > 30 | 4.5
CN(c1nccc(=O)[nH]1)C1CCN(c2nc3ccccc3n2Cc2ccc(F)cc2)CC1 [MIZOLASTINE] | > 30 | > 30 | > 30 | > 30 | > 30 | – | > 30 | > 30 | > 30 | > 30
CCN(CC)CC(=O)Oc1ccc(NC(C)=O)cc1 [PROPACETAMOL] | > 30 | – | > 30 | > 30 | > 30 | – | > 30 | > 30 | > 30 | > 30
